Patent US20070128217A1 (priority 2003, published 2007)

Columns and labels:
[1] = tested on: rabbit serum obtained by immunizing a rabbit with the SARS-CoV strain Frankfurt 1; assay type: binding; parameters: Binding of a rabbit serum to linear peptides / Binding of a rabbit serum to looped peptides / Rabbit serum linear peptides / Rabbit serum looped peptides / Binding of a rabbit serum to linear peptides of protein N of SARS-CoV Urbani (Rabbit serum linear peptides) / Binding of a rabbit serum to looped/cyclic peptides of protein N of SARS-CoV Urbani (Rabbit serum looped peptides): unit not given here
[2] = tested on: antibodies in sera from SARS patients (sera 1a, 1b, 2, 6, 37, 62, London, SARS-yellow, SARS-green); assay type: binding, human; parameters: Binding of serum 6 to linear peptides of protein X1 of SARS-CoV Urbani / Binding of serum 37 to linear peptides of protein X1 of SARS-CoV Urbani / Binding of serum 6 to looped/cyclic peptide (PEPSCAN-ELISA) / Binding of serum 37 to looped/cyclic peptide (PEPSCAN-ELISA) / Binding of serum 37 to looped/cyclic peptides of protein X1 of SARS-CoV Urbani / Binding of serum 6 to linear peptides of protein X2 / Binding of serum 37 to linear peptides of protein X2 / Binding of serum 37 to looped/cyclic peptides of protein X2 of SARS-CoV Urbani / Binding of serum 6 to linear peptides of protein M of SARS-CoV Urbani / Binding of serum 37 to linear peptides of protein M of SARS-CoV Urbani / Binding of serum 6 to looped/cyclic peptides of protein M of SARS-CoV Urbani / Binding of serum 37 to looped/cyclic peptides of protein M of SARS-CoV Urbani / Binding of serum 6 to linear peptides of protein X3 of SARS-CoV Urbani / Binding of serum 37 to linear peptides of protein X3 of SARS-CoV Urbani / Binding of serum 37 to looped/cyclic peptides of protein X3 of SARS-CoV Urbani / Binding of serum 6 to linear peptides of protein X4 of SARS-CoV Urbani / Binding of serum 37 to linear peptides of protein X4 of SARS-CoV Urbani / Binding of serum 37 to looped/cyclic peptides of protein X4 of SARS-CoV Urbani / Binding of serum 6 to linear peptides of protein X5 of SARS-CoV Urbani / Binding of serum 37 to linear peptides of protein X5 of SARS-CoV Urbani / Binding of serum 37 to looped/cyclic peptides of protein X5 of SARS-CoV Urbani / Binding of serum 6 to linear peptides of protein N of SARS-CoV Urbani / Binding of serum 37 to linear peptides of protein N of SARS-CoV Urbani / Binding of serum 6 to linear peptide (PEPSCAN-ELISA) / Binding of serum 1a to looped/cyclic peptides of protein N of SARS-CoV Urbani / Binding of serum 1b to looped/cyclic peptides of protein N of SARS-CoV Urbani / Binding of serum 2 to looped/cyclic peptides of protein N of SARS-CoV Urbani / Binding of serum 6 to looped/cyclic peptides of protein N of SARS-CoV Urbani / Binding of serum 37 to looped/cyclic peptides of protein N of SARS-CoV Urbani / Binding of serum 62 to looped/cyclic peptides of protein N of SARS-CoV Urbani / Binding of serum London to looped/cyclic peptides of protein N of SARS-CoV Urbani / Binding of serum SARS-green to looped/cyclic peptides of protein N of SARS-CoV Urbani: unit not given here
[3] = tested on: recombinant human anti-SARS-CoV antibody 03-018; assay type: binding; parameters: Binding of antibody 03-018 to linear peptides of the N protein of SARS-CoV Urbani / Binding of antibody 03-018 to looped/cyclic peptides of the N protein of SARS-CoV Urbani: unit not given here
[4] = tested on: control sera (pooled serum of ten healthy LUMC hospital workers; commercial negative donor pooled serum from the Dutch bloodbank); assay type: binding, human; parameters: Binding of Control serum LUMC to linear peptides / Binding of Control serum Blood-bank to linear peptides / Binding of Control serum LUMC to looped peptides / Binding of Control Serum Blood-Bank to Looped peptides / Binding of Control serum LUMC to linear peptides of the protein M of SARS-CoV Urbani / Binding of Control serum Blood-bank to linear peptides of the protein M of SARS-CoV Urbani / Binding of Control serum LUMC to looped peptides of the protein M of SARS-CoV Urbani / Binding of Control Serum Blood-Bank to Looped peptides of the protein M of SARS-CoV Urbani: unit not given here

| Sequence | Binding of a rabbit serum to linear peptides of protein N of SARS-CoV Urbani (Rabbit serum linear peptides) [1] | Binding of a rabbit serum to looped/cyclic peptides of protein N of SARS-CoV Urbani (Rabbit serum looped peptides) [1] | Binding of serum 1a to linear peptides of protein N of SARS-CoV Urbani [2] | Binding of serum 1a to looped/cyclic peptides of protein N of SARS-CoV Urbani [2] | Binding of serum 1b to linear peptides of protein N of SARS-CoV Urbani [2] | Binding of serum 1b to looped/cyclic peptides of protein N of SARS-CoV Urbani [2] | Binding of serum 2 to linear peptides of protein N of SARS-CoV Urbani [2] | Binding of serum 2 to looped/cyclic peptides of protein N of SARS-CoV Urbani [2] | Binding of serum 6 to linear peptides of protein N of SARS-CoV Urbani [2] | Binding of serum 6 to looped/cyclic peptides of protein N of SARS-CoV Urbani [2] | Binding of serum 37 to linear peptides of protein N of SARS-CoV Urbani [2] | Binding of serum 37 to looped/cyclic peptides of protein N of SARS-CoV Urbani [2] | Binding of serum 62 to linear peptides of protein N of SARS-CoV Urbani [2] | Binding of serum 62 to looped/cyclic peptides of protein N of SARS-CoV Urbani [2] | Binding of serum London to linear peptides of protein N of SARS-CoV Urbani [2] | Binding of serum London to looped/cyclic peptides of protein N of SARS-CoV Urbani [2] | Binding of serum SARS-green to linear peptides of protein N of SARS-CoV Urbani [2] | Binding of serum SARS-green to looped/cyclic peptides of protein N of SARS-CoV Urbani [2] | Binding of serum SARS-yellow to linear peptides of protein N of SARS-CoV Urbani [2] | Binding of serum SARS-yellow to looped/cyclic peptides of protein N of SARS-CoV Urbani [2] | further results |
| --- | --- | --- | --- | --- | --- | --- | --- | --- | --- | --- | --- | --- | --- | --- | --- | --- | --- | --- | --- | --- | --- |
| TDSTDNNQNGGRNGA | 0.1 | 0.2 | 0.3 | 0.4 | 0.2 | 0.3 | 0.2 | 0.6 | 0.3 | 0.3 | 1.0 | 0.7 | 0.8 | 0.3 | 0.6 | 0.6 | 1.0 | 0.8 | 0.7 | 0.7 | Binding of antibody 03-018 to linear peptides of the N protein of SARS-CoV Urbani [3]: 0.2; Binding of antibody 03-018 to looped/cyclic peptides of the N protein of SARS-CoV Urbani [3]: 0.2; Binding of Control Serum Blood-Bank to Looped peptides [4]: 0.7; Binding of Control serum Blood-bank to linear peptides [4]: 1.1; Binding of Control serum LUMC to linear peptides [4]: 0.8; Binding of Control serum LUMC to looped peptides [4]: 0.8 |
| TEGALNTPKDHIGTR | 0.2 | 0.0 | 0.2 | 0.3 | 0.1 | 0.2 | 0.2 | 0.5 | 0.2 | 0.4 | 0.7 | 0.5 | 0.7 | 0.6 | 0.5 | 0.4 | 0.6 | 0.6 | 0.6 | 0.4 | Binding of antibody 03-018 to linear peptides of the N protein of SARS-CoV Urbani [3]: 0.2; Binding of antibody 03-018 to looped/cyclic peptides of the N protein of SARS-CoV Urbani [3]: 0.3; Binding of Control Serum Blood-Bank to Looped peptides [4]: 0.7; Binding of Control serum Blood-bank to linear peptides [4]: 1.0; Binding of Control serum LUMC to linear peptides [4]: 0.9; Binding of Control serum LUMC to looped peptides [4]: 0.7 |
